{
  "source": "patent US6765096B1",
  "about": "“Tricyclic compound having acyloxymethoxycarbonyl side chain” (Shionogi & Co., Ltd., priority 1999, dated 2004)",
  "key": {"[1]": {"tested_on": "anti-ovalbumin (OVA) IgE antibody production", "assay": "IgE antibody production inhibiting effects against anti-ovalbumin (OVA); anti-OVA IgE antibody titer (PCA titer)", "assay_type": "in vivo, BALB/c mice", "conditions": "consecutive 10 days, OVA-immunized BALB/c mouse, Log2 of maximum serum dilution giving PCA positive reaction in Wistar rat", "procedure": "Test Example 1 IgE Antibody Production Inhibiting Effects Against Anti-ovalbumin (OVA)\nBALB/c mice (female, 8-10 weeks old) and Wistar rats (female, 8-10 weeks old) purchased from Japan SLC (Shizuoka) were used.\n2) Method of Immunization\n0.2 mL of a solution obtained by suspending 2 μg of ovalbumin (OVA) and 2 mg of aluminium hydroxide gel in a physiological saline was injected in a BALB/c mouse intraperitoneally to immunize it. After ten days, blood was taken from the heart, serum was separated, and stored at −40° C. until the IgE antibody titer was measured.\n[…] Administration was carried out for consecutive 10 days from an immunization day to the day before a blood collection day.\n4) Measurement of Anti-OVA IgE Antibody Titer (PCA Titer)\nThe resulting mouse serum was prepared into a 2-fold dilution series using a physiological saline, each 50 μl of which was injected to a pre-haircut Wistar rat intracutaneously at a back. After 24 hours, 0.5 mL of a physiological saline containing 1 mg of OVA and 5 mg of Evans Blue pigment was injected intravenously to induce passive cutaneous anaphylaxis reaction (PCA). After 30 minutes, a maximum dilution rate of the serum showing PCA positive reaction of a pigment spot having a diameter of 5 mm or more was determined, and Log2 of its dilution rate was adopted as a PCA titer. For example, when a serum becomes PCA reaction positive until 2^7-fold dilution, an anti-OVA IgE antibody titer of the mouse is 7."}, "[2]": {"assay": "Oral absorption test, non-fasting rat (Test Example 4)", "assay_type": "in vivo", "procedure": "(§1) The present compound (I-1) was ground with an agate mortar, which was prepared into an aqueous suspension having the concentration of 10 mg/mL using a 0.5% aqueous methylcellulose solution as a vehicle. Each compound was orally administered to a Jcl:SD male rat (10 weeks old, 18 hours fasting) as a parent compound at a rate of 20 mg/kg. 0.5, 1, 2, 4, 6, 8 and 24 hours after administration, 0.3 mL of blood was taken from a cannula inserted in rat jugular in advance. The blood was centrifuged to obtain a plasma. 0.5 mL of a mixed solution of methanol and acetonitrile (1/1 (w/w)) was added to 0.1 mL of the plasma, proteins were removed therefrom, followed by centrifugation. The supernatant was used as a HPLC sample.\nTest Example 4 Oral Absorption Test\nThe oral absorbabilities of the present compound (I-16) and its parent compound (II-1) were measured as in Test Example 2 using a non-fasting rat."}, "[3]": {"assay": "Oral absorption test, fasting rat (Test Examples 2 and 3)", "assay_type": "in vivo, Jcl:SD male rat", "conditions": "rat 18 hours fasting", "procedure": "Test Example 2 Oral Absorption Test\nas §1\nThe oral absorbabilities of the present compound (I-163) and its parent compound (II-4) were measured as in Test Example 2."}, "[4]": {"conditions": "oral administration, only parent compound (II-1) observed"}, "[5]": {"conditions": "plasma concentration of parent compound (II-1) after oral administration"}, "[6]": {"conditions": "plasma concentration of parent compound after oral administration, 20 mg/kg as parent compound"}},
  "data": [
    {"smiles": "CC(=O)NC(CC(N)=O)C(=O)OCOC(=O)N(CC=C(C)C)c1ccc(-c2cc(C)c(-c3ccc(OCC=C(C)C)nc3)cc2C)c(F)c1", "note": "(stereo not drawn) [Compound I-13, 2-acetylamino-succinamic acid [{2-fluoro-2′,5′-dimethyl-4′-[6-(3-methyl-but-2-enyloxy)-pyridin-3-yl]-biphenyl-4-yl}-((E)-3-methyl-but-2-enyl)-carbamoyloxy]-methylester]", "values": [
      {"measurement": "anti-OVA IgE antibody titer (PCA titer)", "setting": "[1]; 10 mg/Kg orally", "result": "<0"}
    ]},
    {"smiles": "CC(=O)NCC(=O)NCC(=O)OCOC(=O)N(CC=C(C)C)c1ccc(-c2cc(C)c(-c3ccc(OCC=C(C)C)nc3)cc2C)c(F)c1", "note": "[Compound I-16, (2-acetylamino-ethanoylamino)-acetic acid [{2-fluoro-2′,5′-dimethyl-4′-[6-(3-methyl-but-2-enyloxy)-pyridin-3-yl]-biphenyl-4yl]}-((E)-3-methyl-but-2-enyl)-carbamoyloxy]-methyl ester]", "values": [
      {"measurement": "anti-OVA IgE antibody titer (PCA titer)", "setting": "[1]; 10 mg/Kg orally", "result": "<0"},
      {"measurement": "administered prodrug itself in the circulating plasma", "setting": "[2]; [4]", "result": "not detected"},
      {"measurement": "AUC", "setting": "[2]; [5]", "result": 165520, "unit": "ng·h/mL"},
      {"measurement": "Cmax", "setting": "[2]; [5]", "result": 16020, "unit": "ng/mL"}
    ]},
    {"smiles": "CC(=O)NC(CCC(N)=O)C(=O)OCOC(=O)N(CC=C(C)C)c1ccc(-c2cc(C)c(-c3ccc(OCC=C(C)C)nc3)cc2C)c(F)c1", "note": "(stereo not drawn) [Compound I-15, 2-acetylamino-4-carbamoyl-butyric acid [{2-fluoro-2′,5′-dimethyl-4′-[6-(3-methyl-but-2-enyloxy)-pyridin-3-yl]-biphenyl-4-yl}-((E)-3-methyl-but-2-enyl)-carbamoyloxy]-methyl ester]", "values": [
      {"measurement": "anti-OVA IgE antibody titer (PCA titer)", "setting": "[1]; 10 mg/Kg orally", "result": 0}
    ]},
    {"smiles": "CC(=O)NC(CCC(=O)OCOC(=O)N(CC=C(C)C)c1ccc(-c2cc(C)c(-c3ccc(OCC=C(C)C)nc3)cc2C)c(F)c1)C(N)=O", "note": "(stereo not drawn) [Compound I-6, 4-acetylamino-4-carbamoyl-butyric acid [{2-fluoro-2′,5′-dimethyl-4′-[6-(3-methyl-but-2-enyloxy)-pyridin-3-yl]-biphenyl-4-yl}-(3-methyl-but-2-enyl)-carbamoyloxy]-methyl ester]", "values": [
      {"measurement": "anti-OVA IgE antibody titer (PCA titer)", "setting": "[1]; 10 mg/Kg orally", "result": 1.8}
    ]},
    {"smiles": "CC(C)=CCOc1ccc(-c2cc(C)c(-c3ccc(N(CC=C(C)C)C(=O)OCOC(=O)CCC(N)=O)cc3F)cc2C)cn1", "note": "[Compound I-1]", "values": [
      {"measurement": "anti-OVA IgE antibody titer (PCA titer)", "setting": "[1]; 3 mg/Kg orally", "result": 7.0},
      {"measurement": "anti-OVA IgE antibody titer (PCA titer)", "setting": "[1]; 10 mg/Kg orally", "result": 0.8},
      {"measurement": "administered prodrug itself in the circulating plasma", "setting": "[3]; [4]", "result": "not detected"},
      {"measurement": "AUC", "setting": "[3]; [6]", "result": 32030, "unit": "ng·h/mL"},
      {"measurement": "Cmax", "setting": "[3]; [6]", "result": 2500, "unit": "ng/mL"}
    ]}
  ]
}
